From PubChem BioAssay (NCI)
≈ marks a conversion by molar mass, not a printed value.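 Method: 48-hour compound exposure of cells in 96-well plates, five concentrations, linear interpolation of endpoints. GI50 = concentration required for 50% inhibition of growth. At the TGI there is no net growth.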

Key:
Experiment in all cases: inhibition of tumour cell growth, NCI panel, 48 h; in the data active means GI50 below about 0.43 µM; inactive means the rest
[1] = test system: SR leukemia
[2] = test system: SF-295 CNS
[3] = test system: HOP-62 NSCLC
[4] = test system: SK-MEL-28 melanoma
[5] = test system: CAKI-1 renal
[6] = test system: LOX IMVI melanoma
[7] = test system: A549 NSCLC
[8] = test system: IGROV1 ovarian
[9] = test system: HT29 colon
[10] = test system: SF-539 CNS
[11] = test system: TK-10 renal
[12] = test system: HCT-116 colon
[13] = test system: BT-549 breast
[14] = test system: A498 renal
[15] = test system: COLO 205 colon
[16] = test system: MCF7 breast
[17] = test system: U251 CNS
[18] = test system: SNB-75 CNS
[19] = test system: KM12 colon
[20] = test system: T-47D breast
[21] = test system: HL-60(TB) leukemia
[22] = test system: HOP-92 NSCLC
[23] = test system: NCI-H23 lung
[24] = test system: HCT-15 colon
[25] = test system: UACC-62 melanoma
[26] = test system: OVCAR-4 ovarian
[27] = test system: SN12C renal
[28] = test system: NCI-H522 lung
[29] = test system: SK-MEL-5 melanoma
[30] = test system: OVCAR-5 ovarian
[31] = test system: ACHN renal
[32] = test system: PC-3 prostate
[33] = test system: MALME-3M melanoma
[34] = test system: NCI-H226 lung
[35] = test system: MDA-N
[36] = test system: HCC-2998 colon
[37] = test system: NCI/ADR-RES ovarian
[38] = test system: UO-31 renal
[39] = test system: RXF 393 renal
[40] = test system: HS 578T breast
[41] = test system: M14 melanoma
[42] = test system: SK-OV-3 ovarian
[43] = test system: OVCAR-3 ovarian
[44] = test system: SK-MEL-2 melanoma
[45] = test system: CCRF-CEM leukemia
[46] = test system: K-562 leukemia
[47] = test system: NCI-H460 lung
[48] = test system: MDA-MB-435
[49] = test system: DU-145 prostate
[50] = test system: EKVX NSCLC
[51] = test system: SF-268 CNS
[52] = test system: MDA-MB-231 breast
[53] = test system: SW-620 colon
[54] = test system: MOLT-4 leukemia
[55] = test system: OVCAR-8 ovarian
[56] = test system: UACC-257 melanoma
[57] = test system: RPMI-8226 leukemia
[58] = test system: 786-0 renal
[59] = test system: SNB-19 CNS

CN1CCN(C(=O)CCNC(=O)Cc2ccc(C(=O)c3ccccc3)cc2)CC1
71.5 µM: TGI [35]
56 µM: TGI [48]
> 100 µM: TGI [1] | TGI [2] | TGI [3] | TGI [4] | TGI [5] | TGI [6] | TGI [7] | TGI [8] | TGI [9] | TGI [10] | TGI [11] | TGI [12] | TGI [13] | TGI [14] | TGI [15] | TGI [16] | TGI [17] | TGI [18] | TGI [19] | TGI [20] | TGI [21] | TGI [22] | TGI [23] | TGI [24] | TGI [25] | TGI [26] | TGI [27] | TGI [28] | TGI [29] | TGI [30] | TGI [31] | TGI [32] | TGI [33] | TGI [34] | TGI [36] | TGI [37] | TGI [38] | TGI [39] | TGI [40] | TGI [41] | TGI [42] | TGI [43] | TGI [44] | TGI [45] | TGI [46] | TGI [47] | TGI [49] | TGI [50] | TGI [51] | TGI [52] | TGI [53] | TGI [54] | TGI [55] | TGI [56] | TGI [57] | TGI [58] | TGI [59]

Cc1cc(C)n2nc3nc(N)c(C#N)c(-c4ccccc4)c3c2n1
> 100 µM: TGI [1] | TGI [2] | TGI [3] | TGI [4] | TGI [5] | TGI [6] | TGI [7] | TGI [8] | TGI [9] | TGI [10] | TGI [11] | TGI [12] | TGI [13] | TGI [14] | TGI [15] | TGI [16] | TGI [17] | TGI [19] | TGI [20] | TGI [21] | TGI [22] | TGI [23] | TGI [24] | TGI [25] | TGI [26] | TGI [27] | TGI [28] | TGI [29] | TGI [30] | TGI [31] | TGI [32] | TGI [33] | TGI [34] | TGI [35] | TGI [36] | TGI [37] | TGI [38] | TGI [39] | TGI [40] | TGI [41] | TGI [42] | TGI [43] | TGI [44] | TGI [45] | TGI [46] | TGI [47] | TGI [48] | TGI [49] | TGI [50] | TGI [51] | TGI [52] | TGI [53] | TGI [54] | TGI [55] | TGI [56] | TGI [57] | TGI [58] | TGI [59]

COc1cc(N(CCC#N)CCC#N)ccc1/C(N=Nc1ccc([N+](=O)[O-])cc1)=N/NC(=O)c1cc(Br)ccc1O
128 µg/mL: TGI [54]
78.7 µg/mL: TGI [36] | TGI [51]
inactive: GI50 [1] 44.8 µg/mL (≈ 72.3 µM) | GI50 [2] 29.9 µg/mL (≈ 48.3 µM) | GI50 [4] 80.6 µg/mL (≈ 130 µM) | GI50 [5] 65.9 µg/mL (≈ 106 µM) | GI50 [6] 29 µg/mL (≈ 46.8 µM) | GI50 [7] 44.4 µg/mL (≈ 71.7 µM) | GI50 [8] 26.6 µg/mL (≈ 42.9 µM) | GI50 [9] 43.5 µg/mL (≈ 70.3 µM) | GI50 [10] 33.2 µg/mL (≈ 53.6 µM) | GI50 [12] 29.9 µg/mL (≈ 48.2 µM) | GI50 [13] 53 µg/mL (≈ 85.6 µM) | GI50 [14] 86.6 µg/mL (≈ 140 µM) | GI50 [15] 24 µg/mL (≈ 38.8 µM) | GI50 [16] 42.3 µg/mL (≈ 68.3 µM) | GI50 [17] 57.3 µg/mL (≈ 92.5 µM) | GI50 [18] 28.4 µg/mL (≈ 45.9 µM) | GI50 [19] 28.5 µg/mL (≈ 46 µM) | GI50 [20] 34.6 µg/mL (≈ 55.9 µM) | GI50 [21] 49.2 µg/mL (≈ 79.4 µM) | GI50 [22] 79.6 µg/mL (≈ 129 µM) | GI50 [23] 51.2 µg/mL (≈ 82.7 µM) | GI50 [24] 25.6 µg/mL (≈ 41.3 µM) | GI50 [25] 40.9 µg/mL (≈ 66.1 µM) | GI50 [26] 21.5 µg/mL (≈ 34.7 µM) | GI50 [27] 53.4 µg/mL (≈ 86.2 µM) | GI50 [28] 53.4 µg/mL (≈ 86.2 µM) | GI50 [29] 26.3 µg/mL (≈ 42.4 µM) | GI50 [30] 50 µg/mL (≈ 80.8 µM) | GI50 [31] 39.6 µg/mL (≈ 63.9 µM) | GI50 [32] 37 µg/mL (≈ 59.7 µM) | GI50 [33] 44.2 µg/mL (≈ 71.4 µM) | GI50 [34] 5.47 µg/mL (≈ 8.83 µM) | GI50 [35] 43.8 µg/mL (≈ 70.7 µM) | GI50 [36] 40.9 µg/mL (≈ 66 µM) | GI50 [37] 40.1 µg/mL (≈ 64.7 µM) | GI50 [38] 48.4 µg/mL (≈ 78.1 µM) | GI50 [39] 30.3 µg/mL (≈ 48.9 µM) | GI50 [40] 69.8 µg/mL (≈ 113 µM) | GI50 [41] 44.5 µg/mL (≈ 71.8 µM) | GI50 [42] 37.3 µg/mL (≈ 60.1 µM) | GI50 [43] 30.9 µg/mL (≈ 49.9 µM) | GI50 [44] 44.2 µg/mL (≈ 71.4 µM) | GI50 [45] 48.5 µg/mL (≈ 78.3 µM) | GI50 [46] 63.1 µg/mL (≈ 102 µM) | GI50 [47] 33.8 µg/mL (≈ 54.5 µM) | GI50 [48] 52.2 µg/mL (≈ 84.3 µM) | GI50 [49] 30.3 µg/mL (≈ 48.9 µM) | GI50 [50] 42.8 µg/mL (≈ 69.1 µM) | GI50 [51] 19.3 µg/mL (≈ 31.2 µM) | GI50 [52] 35.7 µg/mL (≈ 57.7 µM) | GI50 [53] 57.4 µg/mL (≈ 92.7 µM) | GI50 [54] 42.6 µg/mL (≈ 68.7 µM) | GI50 [55] 52.8 µg/mL (≈ 85.2 µM) | GI50 [56] 52.3 µg/mL (≈ 84.4 µM) | GI50 [57] 38.2 µg/mL (≈ 61.7 µM) | GI50 [58] 46.4 µg/mL (≈ 75 µM) | GI50 [59] 58.5 µg/mL (≈ 94.4 µM)
126 µg/mL: TGI [35]
96.1 µg/mL: TGI [33]
91.9 µg/mL: TGI [12]
116 µg/mL: TGI [37]
87 µg/mL: TGI [20]
69.6 µg/mL: TGI [2]
45.9 µg/mL: TGI [15]
70.9 µg/mL: TGI [49]
68.2 µg/mL: TGI [24]
71 µg/mL: TGI [19]
83.8 µg/mL: TGI [39]
107 µg/mL: TGI [47]
148 µg/mL: TGI [41]
85.2 µg/mL: TGI [52]
64.3 µg/mL: TGI [34]
83.6 µg/mL: TGI [18]
110 µg/mL: TGI [6]
140 µg/mL: TGI [7]
46.9 µg/mL: TGI [29]
122 µg/mL: TGI [10]
62.4 µg/mL: TGI [26]
121 µg/mL: TGI [8]
> 150 µg/mL: TGI [1] | TGI [4] | TGI [5] | TGI [13] | TGI [14] | TGI [16] | TGI [17] | TGI [21] | TGI [22] | TGI [23] | TGI [25] | TGI [27] | TGI [28] | TGI [30] | TGI [32] | TGI [38] | TGI [40] | TGI [42] | TGI [44] | TGI [45] | TGI [46] | TGI [48] | TGI [50] | TGI [53] | TGI [55] | TGI [56] | TGI [57] | TGI [58] | TGI [59]
105 µg/mL: TGI [9]
76.2 µg/mL: TGI [43]
131 µg/mL: TGI [31]
